Test results as given in patent US8022178B2, “Modified self-assembling peptides” (Massachusetts Institute of Technology, priority 2006, dated 2011).
“Also recorded” adds a separate entry of the source.

Columns and labels:
[1] = neutral pH range (Caplan 2002a); cited from earlier work
[2] = tested on: HUVEC (human umbilical vein endothelial cells); experiment: HUVEC cell attachment on hydrogels based on various self-assembling sequence; conditions: HUVEC cultured for three days
Experimental: Cell attachment and viability of the hydrogels were evaluated using HUVEC (human umbilical vein endothelial cells). The peptide solutions shown in Table 22 were loaded in the culture inserts (10 mm diameter, Millicell-CM, Millipore) and gels were formed using cell culture medium (EGM-2-MV, Camblex). HUVEC were plated at 8×10^4 cells on the inserts and cultured for three days.
This implies that functionalization of the self-assembling peptide is useful regardless of the basic repetitive sequence, while the properties of hydrogel can be controlled by altering basic repetitive sequence in amino acid and length.

bFGF = bFGF (Homo sapiens, UniProt P09038); experiment: bFGF retention in peptide matrix (ELISA); conditions: bFGF 175 ng/insert loaded after gelation; during PBS washing and culturing; FIG. 19
bFGF, sequence (P09038 143-288, species assumed): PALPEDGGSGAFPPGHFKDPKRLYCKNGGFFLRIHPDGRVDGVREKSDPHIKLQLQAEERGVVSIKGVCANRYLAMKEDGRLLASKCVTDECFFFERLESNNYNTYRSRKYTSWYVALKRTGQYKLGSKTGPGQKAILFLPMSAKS
Experimental: The effect of protein retention and delivery using the self-assembling peptide were studied (Table 11). bFGF was used as a model protein. The retention of bFGF in different peptide matrix in different charge condition was measured by ELISA after washing by PBS. After washing out unbound bFGF, the effect of protein retention to self-assembling peptide matrix were evaluated the using cell culturing of HUVEC (human umbilical vein endothelial cells).
The peptide solutions provided in Table 12 were loaded in the culture inserts (10 mm diameter, Millicell-CM, Millipore) and gels were formed using PBS. After gelation, bFGF solution in PBS was added inside and outside and plated for overnight. bFGF was loaded at 175 ng/insert. After loading bFGF, the PBS inside and outside the inserts were exchanged three times (2 hours, 9 hours and 12 hours) to remove unbound bFGF (Washing). After the washing, the PBS was exchanged to the cell culture medium (EGM-2-MV, Camblex) without attached growth factor (bFGF, VEGF and EGF) and placed more than a day (such that the fluid contained in the gel is exchanged from PBS to cell culture medium), then HUVEC (human umbilical vein endothelial cells) were plated at 7.5×10^4 cells on the inserts and cultured for three days.
Cell culturing using cell culture medium (EGM-2-MV) was used without attached growth factor on peptide matrix as negative control. Cell culturing using cell culture medium (EGM-2-MV) was used with attached growth factor on peptide matrix without loading growth factor as positive control. The bFGF concentration in washing buffer (PBS) and cell culture medium (EGM-2-MV) was measured using ELISA. The washing buffer and cell culture medium were exchanged at each measurement period (2 hours, 9 hours and 12 hours for washing, and at the cell seeding (D0), Day 1 (D 1), Day 2 (D2) and Day 3 (D3)). Growth factor retention rate was calculated by accumulating the amount of measured bFGF.

[3] = pI and charge of the self-assembling peptide; assay type: physicochemical
Experimental: A comparison of the pH dependent property of 1% Ac(RADA)4GGFHRRIKA CONH2 (SEQ ID NO. 6) solution (Code: FHR), self assembling peptide sequence was compared with the heparin-binding motif. FIG. 12 depicts the isoelectric plot and corresponding rheological data when 0.1 N NaOH solution is added to FHR solution to adjust pH. The net charge of the peptide molecule is kept ≧2 when pH<10. Until at point of pH 5.7, the solution keeps viscous state. This movement of pH point where the peptide solution become gel is controlled by the charge induced by the additional motif to the self-assembling peptide. The induced charge prevents the peptide to aggregate to form the gel. Thus, the cell and the peptide solution can be mixed near neutral pH. After complete mixing, the gel formation can be made by adding salt containing solution (e.g., a solution containing a gellation agent or an iso-osmotic solute).
FIG. 18 depicts the isoelectric plot and Rheological data of PFS 1% solution when 0.1 N NaOH solution is added. 1% Ac(RADA)4GGSKPPGTSS-CONH2 solution (Code: SKP, peptide sequence: SEQ ID NO. 7) is a hydrogel composed of peptides with a self-assembling sequence and positively-charged functional motif. Although the pI value of the peptide is 9.74 and it keeps positive charge at near pH 7 range, the gel is formed at the point of pH 4.5. This is because the charge of the molecule around pH 7 range is +1 and smaller than the charge of Ac(RADA)4GGFHRRIKA CONH2 (FHR) (bigger than 3). The charge of the whole peptide should be larger than 2 when the cell is mixed. This pH should be somewhere in 6-8 in order to minimize the damage to the cells. As this sequence is heparin-binding motif, the fiber can attach to the heparin molecule which is abundant at cell surface. This heparin-binding motif provides a specific anchor to the cell. As described in Example 1, this binding synergistically works with the other binding motif (e.g., RGD) to induce biological stimuli for cell proliferation and differentiation. This effect is not limited to the sequences previously describe, but the other motifs, including -XBBXBX- and -XBBBXXBX- sequences. […]

[4] = tested on: Mouse preosteoblast cell line (MC3T3-E1); experiment: MC3T3-E1 cell proliferation on hydrogels (DNA content, PicoGreen); assay type: cell-based; conditions: pre-osteoblast; when it becomes hydrogel; no data shown
Experimental: Mouse preosteoblast cell line (MC3T3-E1) was used to compare the proliferation and differentiation effects of the motifs with RAD16-1 and Collagen-I hydrogels as controls. The proliferation was measured by DNA contents and the differentiation effects were evaluated using Alkaline phosphatase (ALP) activity and secreted Osteocalcin. Alkaline phosphatase is known to be differentiation marker of osteoblast in earlier stage. Secreted Osteocalcin is known to be differentiation marker of osteoblast in later stage and its activity is correlated with the bone mineralization.
1% RAD16-I solution [self-assembling peptide solution] was obtained as RAD16-I (Puramatrix™, 3DM Inc./BD Bioscience). The functionalized peptides of Table 2 were dissolved in water at final concentration of 1% (v/w). The functionalized peptide solutions were then mixed with 1% RAD16-I solution at a ratio of 1:1 (Table 4). Each peptide solution was loaded in the Culture plate inserts (10 mm diameter, Millicell-CM, Millipore). […]
Cell proliferation was evaluated using DNA contents in the hydrogel using PicoGreen dsDNA Kits (Molecular Probes). ALP activity was quantitatively measured from cell lysis using Alkaline Phosphatase Fluorescence Assay Kit (Sigma). Osteocalcin was measured from cell culture medium using Mouse Osteocalcin EIA Kit (Biomedical Technologies Inc.).

[5] = neutral pH range (Caplan 2002a); cited from earlier work; remark: listed apart in the source
[6] = tested on: chick Chorioallantoic Membrane; experiment: Chorioallantoic Membrane (CAM) assay of angiogenesis; assay type: in vivo, chicken; conditions: hydrogel placed Day 8, histology Day 12, FIG. 30
Experimental: In vivo study of angiogenesis was performed using Chorioallantoic Membrane (CAM) assay. At Day 8 of fertilized chicken egg incubation, hydrogels of 10 mm diameter with 1 mm thickness were transferred to chick Chorioallantoic Membrane. The hydrogels were selected from Table 19 and gels were formed before the transfer. On Day 12, CAMs were collected for histology. The angiogenesis inside and below the hydrogel were evaluated by histological cross section.

[7] = tested on: HUVEC (human umbilical vein endothelial cells); experiment: HUVEC DNA amount in the well after three days culture; assay type: cell-based; conditions: compared to RAD, FIG. 25
Experimental: (§1) The peptide solutions shown in Table 19 were loaded in the culture inserts (10 mm diameter, Millicell-CM, Millipore) and gels were formed using cell culture medium (EGM-2-MV, Camblex). Collagen-1 and Matrigel were used as control matrices. HUVEC (human umbilical vein endothelial cells) were plated at 8×10^4 cells on the inserts and cultured up to 7 Days.
The amount of DNA in the well after three days culture was evaluated in selected hydrogels of Table 19. The DNA amount is proportional to the number of the cells.

[8] = tested on: HUVEC (human umbilical vein endothelial cells); experiment: Endothelial cell migration from beads to hydrogels; assay type: cell-based; conditions: Day 2; compared to RAD; FIGS. 26-27
Experimental: Endothelial cell migration effect on the hydrogels was evaluated. The endothelial cell migration is important when the vessel has in-growth into the matrix. HUVEC (human umbilical vein endothelial cells) were seeded on Collagen coated Dextran beads (Cytodex3, microcarrier beads, Sigma), then transferred to different hydrogels which selected from Table 19.
FIGS. 26A-26F show the fluorescence microscopy image of beads on the peptide matrix at Day 1 and Day 2 after placing the beads. […] The white bar represents 100 um. On the Day 1, most of the cells stayed on the beads. On the Day 2, the cells were well migrated from the beads to Collagen, PRGmx and KLTmx gel compared to RAD.
The cells are counted in fluorescence microscopy image. The above observation were also confirmed in the graph.

[9] = tested on: HUVEC (human umbilical vein endothelial cells); experiment: HUVEC cultured 2-dimensionally on hydrogels: cell attachment and morphology; assay type: cell-based
Experimental: The effect of functional modified peptide matrix to HUVEC (human umbilical vein endothelial cells) was evaluated by culturing cells 2-dimensionally on the gel.
as §1

Substance	phase of peptide solution in neutral pH range [1]	Cell attachment [2]	bFGF (growth factor) retention rate (bFGF)	charge [3]	pI [3]	cell proliferation on hydrogel [4]	charge in neutral pH range [5]	angiogenesis inside and below the hydrogel [6]	DNA amount in the well [7]	cell migration from the beads to the hydrogel [8]	Cell attachment ([9]; HUVEC cultured on hydrogels)	cell attachment compared to RAD ([9]; HUVEC on hydrogels for two days, confocal, FIGS. 24A-24M)
Ac(FKFQ)3-CONH2 (Ac-FKFQFKFQFKFQ-NH2) [FKF = 1% solution; FKF-2P = 2% solution, reference compound]	stays solution phase; also recorded: stays in solution	++ (++: 20-50%)	high in the order of KFQ-2P, FHR-2P, RAD-2P then DGR-2P	positively charged	10.30,	supports cell proliferation	positively charged					
COL: Collagen-1 gel (0.25%); Collagen I gel from rat tail (BD Bioscience), control matrix								no angiogenesis both inside and below the hydrogel	statically higher	well migrated	++++ (++++: near confluence(>70%))	higher cell attachment
